Assays:
[1] = molecular target: T1, NMDA receptor channel (Rattus norvegicus, UniProt P35439); assay: NMDA/glycine-induced ionic currents in RNA-injected Xenopus oocytes (two-electrode voltage clamp); format: cell-based
T1 construct: were micro-injected with total RNA from brain tissue of adult rats; expressed in transfected cells; host or cells: Xenopus laevis oocytes injected with total RNA from adult rat brain
Experimental: NMDA/Glycine-induced Ionic Currents in RNA-injected Xenopus Oocytes
The experiment to determine functional changes in the NMDA receptor channel due to the compound according to the invention of Formula I was carried out on oocytes of the South African clawed frog, Xenopus laevis. Neuronal NMDA receptor channels were formed for this purpose after injection of RNA from rats' brain into oocytes and were measured by coapplication of NMDA and glycine-activated ionic currents.
Xenopus oocytes from stages V and VI (Dumont, J. N., Journal of Morphology, Vol. 136, 1972) were micro-injected with total RNA from brain tissue of adult rats (100-130 ng/cell) and kept in the culture medium (composition in mmol/l: 88.0 NaCl, 1.0 KCl, 1.5 CaCl2, 0.8 MgSO4, 2.4 NaHCO3, 5 HEPES, 100 IU/ml penicillin, 100 μg/ml streptomycin, pH 7.4) for up to 10 days at 20° C. Transmembranous ionic currents were recorded as in conventional two-electrode voltage clamp technology with a holding potential of −70 mV (P. Bloms-Funke P, M. Madeja, U. Muβhoff, E.-J. Speckman, Neuroscience Letters, Vol. 205, p. 115, 1996). […] To test the effects of substances brought about via the glycine B-binding site of the NMDA receptor channel, the glycine dosage/response curve was recorded with and without the respective compound according to the invention. […] The data was analyzed using Igor-Pro software (Version 3.1, WaveMetrics USA). […]

[2] = test system: formalin-induced nociception; assay: Formalin test, rat (second/late phase); format: in vivo; conditions: i.p., 21.5 mg/kg, late phase
Experimental: Experiments to determine the antinociceptive activity of the compounds according to the invention of Formula I were carried out in the formalin test on male rats (Sprague-Dawley, 150-170 g).
In the formalin test, the first (early) phase (0-15 min after formalin injection) was distinguished from the second (late) phase (15-60 min after formalin injection) (D. Dubuisson, S. G. Dennis, Pain 4, 161-174 (1977)). The early phase, as a direct reaction to the formalin injection, represents a model for acute pain while the late phase is considered as a model for persistent (chronic) pain (T. J. Coderre, J. Katz, A. L. Vaccarino, R. Melzack, Pain, Vol. 52, p. 259,1993).
The compounds according to the invention were investigated in the second phase of the formalin test to obtain information about the effects of substances in chronic/inflammatory pain.
A nociceptive reaction was induced in freely moving experimental animals by a single subcutaneous formalin injection (50 μl, 5%) into the dorsal side of the back right paw, the nociceptive reaction being portrayed by the following behavioral parameters: lifting and holding the respective paw (Score 1), shaking and twitching (Score 2), licking and biting (Score 3). The different behavioral patterns triggered by the formalin injection were recorded continuously by observing the animals in the late phase of the formalin test and were weighted differently in an evaluation. Normal behavior in which the animal loads all four paws uniformly was recorded as score 0. The moment of administration prior to the formalin injection was selected according to the method of administration of the compounds according to the invention (intraperitoneal: 15 min, intravenous: 5 min). The described behavioral patterns (Score 1 to 3) in the animals are reduced and possibly even eliminated after injection of substances which have an antinociceptive effect in the formalin test. A comparisom was made with control animals which had received vehicles (solvents) prior to formalin administration. The nociceptive behavior was calculated as a so-called pain rate (PR). The various behavioral parameters received a different weighting (Factor 0, 1, 2, 3). Calculation took place at partial intervals of 3 min according to the following formula:
Substance and vehicle groups include n=10 animals in each case. The effect of the substance was determined as a percentage change versus control on the basis of the PR calculations. The ED50 calculations were made by regression analysis.

O=C(O)C1Nc2cc(Cl)cc(Cl)c2C2C=CCC12 (stereo not drawn) [Example 2, 7,9-dichloro-3a,4,5,9b-tetrahydro-3H-cyclopenta[c]quinoline-4-carboxylic Acid]
Kb ([1]; NMDA 100 μmol/l with glycine 0-100 μmol/l, oocytes injected with rat brain RNA, read-out: NMDA/glycine-induced ionic currents pA2 value of glycine dosage/response curve (converted)): 0.398 µM
Effect on the glycine dosage/response curve (FIG. 1) ([1]; RNA-injected oocytes, amplitude standardized to NMDA/glycine (100/10 μmol/l)): displacement of the glycine dosage/response curve to the right
% inhibition of formalin-induced nociception [2]: 64.5%
